Assay results reported in ChEMBL document CHEMBL1140777, “3,4-Diamino-2,5-thiadiazole-1-oxides as potent CXCR2/CXCR1 antagonists” (Bioorg Med Chem Lett, 2008).

Key:
[1] = target: T1, C-X-C chemokine receptor type 1 (Homo sapiens, UniProt P25024); experiment: Binding affinity to CXCR1
T1 sequence (P25024 whole entry): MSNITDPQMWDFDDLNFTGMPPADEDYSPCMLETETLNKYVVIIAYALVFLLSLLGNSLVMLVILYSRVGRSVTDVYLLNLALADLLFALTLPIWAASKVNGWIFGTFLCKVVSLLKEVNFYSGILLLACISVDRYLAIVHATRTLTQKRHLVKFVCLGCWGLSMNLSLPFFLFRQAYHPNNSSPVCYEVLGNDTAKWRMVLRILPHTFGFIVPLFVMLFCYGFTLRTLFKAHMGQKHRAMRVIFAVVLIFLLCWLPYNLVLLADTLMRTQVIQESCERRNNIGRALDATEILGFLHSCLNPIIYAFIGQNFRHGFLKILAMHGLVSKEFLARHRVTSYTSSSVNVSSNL

[2] = target: T2, C-X-C chemokine receptor type 2 (Homo sapiens, UniProt P25025); experiment: Binding affinity to CXCR2
T2 sequence (P25025 whole entry): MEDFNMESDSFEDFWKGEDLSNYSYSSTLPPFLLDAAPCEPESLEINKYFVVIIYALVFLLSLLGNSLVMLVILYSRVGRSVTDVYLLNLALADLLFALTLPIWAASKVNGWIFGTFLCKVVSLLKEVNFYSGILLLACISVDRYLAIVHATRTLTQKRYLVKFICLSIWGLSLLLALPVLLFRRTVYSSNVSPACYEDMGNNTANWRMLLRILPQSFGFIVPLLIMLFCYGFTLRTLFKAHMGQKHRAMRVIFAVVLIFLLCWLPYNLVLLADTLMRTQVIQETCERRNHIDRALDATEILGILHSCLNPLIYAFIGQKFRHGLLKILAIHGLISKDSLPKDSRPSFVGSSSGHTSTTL

[3] = target: T3, Interleukin-8 receptors, CXCR1/CXCR2 (Homo sapiens, UniProt P25025+P25024); experiment: Antagonist activity at CXCR1/CXCR2 in human PMN cells assessed as inhibition of IL8-mediated myeloperoxidase release; type: functional, cell-based
T3 sequence (P25025 whole entry): T2 sequence (P25025 whole entry)
T3 sequence (P25024 whole entry): T1 sequence (P25024 whole entry)

[4] = target: T3, Interleukin-8 receptors, CXCR1/CXCR2; experiment: Antagonist activity at CXCR1/CXCR2 in human PMN cells assessed as inhibition of GROalpha-mediated myeloperoxidase release; type: functional, cell-based
[5] = Drug level in po dosed rat blood; type: ADME, organism-based; conditions: read-out: Activity
[6] = target: Interleukin-8 receptors, CXCR1/CXCR2 (Homo sapiens) (UniProt P25025+P25024); experiment: Antagonist activity at CXCR1/CXCR2 in human PMN cells assessed as inhibition of GROalpha-mediated myeloperoxidase release at 1 uM; type: functional, cell-based; design: scale not given: the % may be the effect or the level left

| Structure (SMILES) | Ki [1] | Ki [2] | IC50 [3] | IC50 [4] | AUC [5] | Activity [6] |
| --- | --- | --- | --- | --- | --- | --- |
| CN(C)C(=O)c1cccc(N=C2NS(=O)(=O)N=C2N[C@@H](c2ccc3c(c2)OCCO3)C(C)(C)C)c1O | 2000 nM | 24 nM |  |  | 1.87 µM·h |  |
| CC[C@@H](NC1=NS(=O)(=O)NC1=Nc1cccc(C(=O)N(C)C)c1O)c1ccc2c(c1)OCCN2C | 2800 nM | 9 nM |  |  |  |  |
| CC[C@@H](NC1=NS(=O)(=O)N=C1Nc1cccc(C(=O)N(C)C)c1O)c1ccccc1 | 8990 nM |  | 8990 nM |  | 2.3 µM·h | -39% |
| Cc1cc([C@H](Nc2n[s+]([O-])nc2Nc2cccc(C(=O)N(C)C)c2O)C(C)C)oc1C (stereo not given in full) |  |  | 54 nM | 13 nM | 119 µM·h |  |
| CC[C@@H](NC1=NS(=O)(=O)N=C1Nc1cccc(C(=O)N(C)C)c1O)c1ccc(C)o1 | 5950 nM |  |  |  |  |  |
| CN(C)C(=O)c1cccc(Nc2n[s+]([O-])nc2NCc2ccc3c(c2)OCO3)c1O (stereo not given) | 10000 nM | 15 nM |  |  |  |  |
| CN(C)C(=O)c1cccc(NC2=NS(=O)(=O)N=C2N[C@@H](c2ccc3c(c2)OCCO3)C(C)(C)C)c1O |  |  |  |  |  | -12% |
| CC[C@@H](Nc1n[s+]([O-])nc1Nc1cccc(C(=O)N(C)C)c1O)c1ccccc1 (stereo not given in full) | 1220 nM | 5 nM |  | 331 nM |  |  |
| CC(C)[C@@H](Nc1n[s+]([O-])nc1Nc1cccc(C(=O)N(C)C)c1O)c1cccc(F)c1 (stereo not given in full) | 4010 nM | 8 nM |  |  |  |  |

Results, then the compound that gave them:

| Ki [1] | Ki [2] | IC50 [3] | IC50 [4] | AUC [5] | Activity [6] | Structure (SMILES) |
| --- | --- | --- | --- | --- | --- | --- |
| 375 nM | 12 nM | 400 nM | 132 nM |  |  | CN(C)C(=O)c1cccc(Nc2n[s+]([O-])nc2N[C@@H](c2ccco2)C2(C)CC2)c1O (stereo not given in full) |
| 484 nM | 58 nM | 684 nM | 38 nM | 5.28 µM·h |  | C[C@H](Nc1n[s+]([O-])nc1Nc1cccc(C(=O)N(C)C)c1O)C(C)(C)C (stereo not given in full) |
| 21 nM | 2.3 nM | 20 nM | 8 nM |  |  | CN(C)C(=O)c1cccc(Nc2n[s+]([O-])nc2N[C@@H](c2ccco2)C(C)(C)C)c1O (stereo not given in full) |
| 652 nM | 11 nM |  |  |  |  | CC(C)[C@@H](NC1=NS(=O)(=O)N=C1Nc1cccc(C(=O)N(C)C)c1O)c1cccc(F)c1 |
| 61 nM | 11 nM |  |  |  | 3% | CN(C)C(=O)c1cccc(NC2=NS(=O)(=O)N=C2N[C@@H](c2ccco2)C(C)(C)C)c1O |
| 234 nM | 3 nM | 539 nM | 133 nM |  |  | CC[C@@H](Nc1n[s+]([O-])nc1Nc1cccc(C(=O)N(C)C)c1O)c1ccc(C)o1 (stereo not given in full) |
| 1100 nM | 184 nM |  |  |  | -11% | Cc1ccc([C@H](NC2=NS(=O)(=O)N=C2Nc2cccc(C(=O)N(C)C)c2O)C2(C)CC2)o1 |
| 188 nM | 16 nM |  |  |  | -19% | CCC(C)(C)[C@@H](NC1=NS(=O)(=O)N=C1Nc1cccc(C(=O)N(C)C)c1O)c1ccco1 |
| 129 nM | 9 nM |  |  |  |  | CN(C)C(=O)c1cccc(NC2=NS(=O)(=O)N=C2N[C@@H](c2ccc(Cl)o2)C(C)(C)C)c1O |
| 38 nM | 5 nM | 80 nM | 27 nM |  |  | Cc1ccc([C@H](Nc2n[s+]([O-])nc2Nc2cccc(C(=O)N(C)C)c2O)C(C)(C)C)o1 (stereo not given in full) |
| 46 nM | 4.7 nM |  |  |  |  | CN(C)C(=O)c1cccc(NC2=NS(=O)(=O)N=C2N[C@@H](c2ccc3c(c2)OCO3)C(C)(C)C)c1O |
| 61 nM | 9 nM | 15 nM | 8 nM |  |  | CC[C@@H](Nc1n[s+]([O-])nc1Nc1cccc(C(=O)N(C)C)c1O)c1cc(C(C)C)co1 (stereo not given in full) |
| 130 nM | 4 nM | 142 nM | 28 nM |  |  | CN(C)C(=O)c1cccc(Nc2n[s+]([O-])nc2N[C@@H](c2ccccc2)C(C)(C)C)c1O (stereo not given in full) |
